The results in this text go back to patent publication US12077503B2, “Substituted cyclic amides and their use as herbicides” (FMC CORPORATION, priority 2015, dated 2024).

Holding throughout (assay type): in vivo
The subject of assay [1] is giant foxtail (Setaria faberii). The assay can be described thus: Test A preemergence. The conditions noted are these: Setaria faberi, pre-emergence, 240 h; for pest or weed control at 125 g/ha: 125 g ai/ha, 0 to 100 scale where 0 is no effect and 100 is complete control; for pest or weed control at 500 g/ha: 500 g ai/ha. The method in brief:
(§1)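 Compounds were formulated in a non-phytotoxic solvent mixture with surfactant and applied as a preemergence directed soil spray after seeding, or sprayed postemergence over plants 2 to 10 cm tall at the one- to two-leaf stage. Evaluation after about 10 d compared treated with untreated controls, using a scale from 0 (no effect) to 100 (complete control).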

The next assay relates to Kochia (Kochia scoparia). The assay is described as follows: Test A postemergence. The conditions noted are these: Bassia scoparia, post-emergence, 240 h, postemergence; for pest or weed control at 125 g/ha: 125 g ai/ha. In a few lines:
as §1

Assay [2] has as its system barnyardgrass (Echinochloa crus-galli). The assay is described as follows: Test A postemergence. The conditions noted are these: Echinochloa crus-galli, post-emergence, 240 h, postemergence; for pest or weed control at 125 g/ha: 125 g ai/ha. In a few lines:
as §1

The subject of assay [3] is blackgrass (Alopecurus myosuroides). The assay is described as follows: Test A postemergence. As to conditions: Alopecurus myosuroides, post-emergence, 240 h, postemergence, read-out: Blackgrass plant response rating. In a few lines:
as §1

Another assay has as its system corn (Zea mays). The assay is described as follows: Test A postemergence. As to conditions: Zea mays, post-emergence, 240 h, postemergence; for plant injury at 125 g/ha: 125 g ai/ha. The method in brief:
as §1

Assay [4] relates to giant foxtail (Setaria faberii). The assay is described as follows: Test A postemergence. As to conditions: Setaria faberi, post-emergence, 240 h, postemergence; for pest or weed control at 125 g/ha: 125 g ai/ha. In a few lines: as §1
In assay [5] the test system is pigweed (Amaranthus retroflexus). The assay is described as follows: Test A postemergence. As to conditions: Amaranthus retroflexus, post-emergence, 240 h, postemergence; for pest or weed control at 125 g/ha: 125 g ai/ha. In a few lines:
as §1

In assay [6] the test system is ragweed (common ragweed, Ambrosia elatior). The assay is described as follows: Test A postemergence. The conditions noted are these: Ambrosia artemisiifolia, post-emergence, 240 h, postemergence; for pest or weed control at 125 g/ha: 125 g ai/ha. The method in brief: as §1
Assay [7] relates to ryegrass, Italian (Italian ryegrass, Lolium multiflorum). The assay can be described thus: Test A postemergence. The conditions noted are these: Lolium multiflorum, post-emergence, 240 h, postemergence; for pest or weed control at 125 g/ha: 125 g ai/ha. The method in brief: as §1
Assay [8] has as its system wheat (Triticum aestivum). The assay is described as follows: Test A postemergence. As to conditions: Triticum aestivum, post-emergence, 240 h, postemergence; for plant injury at 125 g/ha: 125 g ai/ha. In a few lines:
as §1

For assay [9], the system named is barnyardgrass (Echinochloa crus-galli). The assay is described as follows: Test B flooded paddy test. The conditions noted are these: Echinochloa crus-galli, 250 g ai/ha, Flood, read-out: Barnyardgrass plant response rating. The method in brief:
(§2)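 Flooding to 3 cm over soil accompanied treatment, which consisted of adding compound to the standing water around 2-leaf plants; depth was then maintained. Visual assessment versus controls followed at 13 to 15 d (scale 0–100, 0 meaning no effect).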

For assay [10], the system named is ducksalad (Heteranthera limosa). The assay can be described thus: Test B flooded paddy test. As to conditions: Heteranthera limosa, 250 g ai/ha, Flood, read-out: Ducksalad plant response rating. The method in brief: as §2
For a further assay, the system named is rice (Oryra sativa). The assay is described as follows: Test B flooded paddy test. As to conditions: Oryza sativa, 250 g ai/ha, Flood, read-out: Rice plant response rating. The method in brief: as §2
Assay [11] concerns sedge, umbrella (small-flower umbrella sedge, Cyperus difformis). The assay can be described thus: Test B flooded paddy test. As to conditions: Cyperus difformis, 250 g ai/ha, Flood, read-out: Sedge, Umbrella plant response rating. In a few lines:
as §2

For assay [12], the system named is Galium (catchweed bedstraw, Galium aparine). The assay is described as follows: Test A postemergence. As to conditions: Galium, post-emergence, 240 h, 125 g ai/ha, postemergence, visual injury rating after approximately 10 d; read-out: Galium plant response rating (0 to 100 scale, 0 no effect, 100 complete control). In a few lines: as §1
[13] abbreviates: 0 to 100 scale where 0 is no effect and 100 is complete control.
Where [14] appears, read: preemergence, read-out: Foxtail, Giant plant response rating.
[15] abbreviates: Preemergence, visual injury vs untreated controls after approximately 10 d, read-out: Foxtail, Giant plant response rating (0 to 100 scale where 0 is no effect and 100 is complete control).
[16] abbreviates: visual injury rating after approximately 10 d, read-out: Kochia plant response rating (0 to 100 scale, 0 no effect, 100 complete control).
Setting [17] is: visual injury rating after approximately 10 d, read-out: Barnyardgrass plant response rating (0 to 100 scale, 0 no effect, 100 complete control).
Setting [18] is: visual injury rating after approximately 10 d, read-out: Corn plant response rating (0 to 100 scale, 0 no effect, 100 complete control).
Where [19] appears, read: visual injury rating after approximately 10 d, read-out: Foxtail, Giant plant response rating (0 to 100 scale, 0 no effect, 100 complete control).
The mark [20] stands for this setting: visual injury rating after approximately 10 d, read-out: Pigweed plant response rating (0 to 100 scale, 0 no effect, 100 complete control).
The mark [21] stands for this setting: visual injury rating after approximately 10 d, read-out: Ragweed plant response rating (0 to 100 scale, 0 no effect, 100 complete control).
Where [22] appears, read: visual injury rating after approximately 10 d, read-out: Ryegrass, Italian plant response rating (0 to 100 scale, 0 no effect, 100 complete control).
Setting [23] is: visual injury rating after approximately 10 d, read-out: Wheat plant response rating (0 to 100 scale, 0 no effect, 100 complete control).
Setting [24] is: scale of 0 to 100 where 0 is no effect and 100 is complete control.

Read-outs that look alike come from different tables or passages of the source.

Consider `Cc1ccc([C@H]2CNC(=O)[C@]2(Br)C(=O)Nc2cccc(F)c2F)cc1F` (racemic) [Compound 1073], for which the pest or weed control at 125 g/ha in assay [1] (preemergence, approx. 10 d, read-out: Foxtail, Giant plant response rating) was found to be 100%; in the assay on Kochia (Kochia scoparia) (visual injury on 0 to 100 scale (0 no effect, 100 complete control), approx. 10 d, read-out: Kochia plant response rating), 0%; in [2] (visual injury on 0 to 100 scale (0 no effect, 100 complete control), approx. 10 d, read-out: Barnyardgrass plant response rating), 70%; in [3] (125 g ai/ha, visual injury on 0 to 100 scale (0 no effect, 100 complete control), approx. 10 d), 0%; in [4] (visual injury on 0 to 100 scale (0 no effect, 100 complete control), approx. 10 d, read-out: Foxtail, Giant plant response rating), 0%; in [5] (visual injury on 0 to 100 scale (0 no effect, 100 complete control), approx. 10 d, read-out: Pigweed plant response rating) it was 0%. In addition, the pest or weed control at 125 g/ha in assay [6] (visual injury on 0 to 100 scale (0 no effect, 100 complete control), approx. 10 d, read-out: Ragweed plant response rating) is 30%; in assay [7] (visual injury on 0 to 100 scale (0 no effect, 100 complete control), approx. 10 d, read-out: Ryegrass, Italian plant response rating), 0%. In addition, the pest or weed control at 500 g/ha is 100% in assay [1] (preemergence, visual injury rating about 10 d after treatment, 0 to 100 scale (0 no effect, 100 complete control), read-out: Foxtail, Giant plant response rating); 40% in the assay with Kochia (Kochia scoparia) (500 g ai/ha, 0 to 100 scale, 0 is no effect, 100 is complete control, read-out: Kochia plant response rating); 90% in assay [2] (500 g ai/ha, 0 to 100 scale, 0 is no effect, 100 is complete control, read-out: Barnyardgrass plant response rating); 30% in assay [3] (500 g ai/ha, 0 to 100 scale, 0 is no effect, 100 is complete control); 40% in assay [4] (500 g ai/ha, 0 to 100 scale, 0 is no effect, 100 is complete control, read-out: Foxtail, Giant plant response rating); 20% in assay [5] (500 g ai/ha, 0 to 100 scale, 0 is no effect, 100 is complete control, read-out: Pigweed plant response rating). Moreover, the pest or weed control at 500 g/ha worked out at 30% in assay [6] (500 g ai/ha, 0 to 100 scale, 0 is no effect, 100 is complete control, read-out: Ragweed plant response rating) and 40% in assay [7] (500 g ai/ha, 0 to 100 scale, 0 is no effect, 100 is complete control, read-out: Ryegrass, Italian plant response rating). Moreover, the plant injury at 125 g/ha with corn (Zea mays) (visual injury on 0 to 100 scale (0 no effect, 100 complete control), approx. 10 d, read-out: Corn plant response rating) was 20%; in assay [8] (visual injury on 0 to 100 scale (0 no effect, 100 complete control), approx. 10 d, read-out: Wheat plant response rating), 0%. Moreover, the plant injury at 500 g/ha was 50% in the assay on corn (Zea mays) (500 g ai/ha, 0 to 100 scale, 0 is no effect, 100 is complete control, read-out: Corn plant response rating) and 30% in assay [8] (500 g ai/ha, 0 to 100 scale, 0 is no effect, 100 is complete control, read-out: Wheat plant response rating). The pest or weed control at 250 g/ha worked out at 55% in assay [9] (setting [13]), 100% in assay [10] (setting [13]), 15% in the assay with rice (Oryra sativa) (setting [13]) and 0% in assay [11] (setting [13]).
Regarding `O=C1NC[C@H](c2cc(F)c(C(F)(F)F)c(F)c2)[C@H]1C(=O)Nc1ccc(F)cc1F` [Compound 840], the pest or weed control at 125 g/ha was found to be 90% in assay [1] (setting [14]); 50% in assay [12]; 0% with Kochia (Kochia scoparia) (setting [16]); 80% in [2] (setting [17]); 90% in assay [4] (setting [19]); 0% in assay [5] (setting [20]). In addition, the pest or weed control at 125 g/ha in assay [6] (setting [21]) and in assay [7] (setting [22]) was 0% throughout. For the same molecule, the pest or weed control at 500 g/ha in [1] (setting [15]) is 90%. Moreover, the plant injury at 125 g/ha was found to be 30% in the assay on corn (Zea mays) (setting [18]) and 20% in assay [8] (setting [23]). In addition, the pest or weed control at 250 g/ha in assay [9] (setting [24]) came out at 0%; in assay [10] (setting [24]) it was 80%; with rice (Oryra sativa) (setting [24]) it was 0%; in assay [11] (setting [24]), 0%.
Take `CCOc1ccc([C@H]2CNC(=O)[C@@H]2C(=O)Nc2ccccc2F)cc1` [Compound 906]: the pest or weed control at 125 g/ha (in assay [1] (setting [14]); in [12]; with Kochia (Kochia scoparia) (setting [16]); in assay [2] (setting [17]); in assay [4] (setting [19]); in assay [5] (setting [20])) was 0% each time. The pest or weed control at 125 g/ha in assay [6] (setting [21]) and in assay [7] (setting [22]) was 0% throughout. Moreover, the pest or weed control at 500 g/ha in [1] (setting [15]) was 0%. In addition, the plant injury at 125 g/ha (in the assay on corn (Zea mays) (setting [18]); in assay [8] (setting [23])) was 0% throughout. For the same molecule, the pest or weed control at 250 g/ha (in [9] (setting [24]); in [10] (setting [24]); with rice (Oryra sativa) (setting [24]); in assay [11] (setting [24])) was 0% each time.
